For data set [1], the system named is LS174T human colorectal tumor. Briefly: Anti-tumor activity of CAB1.2 plus C-Mel in LS174T human colorectal model in SCID mice. In kind it is in vivo, CB17-SCID mice. The source says: (§1) Female CB17-SCID mice (8-10 weeks, Taconic Labs) were challenged subcutaneously (SC) with 2×10^6 LS174T cells suspended in serum free DMEM in a volume of 100 microliters (Medimmune ACUC protocol # ACF 037). When mean tumor volumes were approximately 100-150 mm^3, animals were randomly distributed into treatment groups. Animals without detectable tumors or excessively large tumors (volume >300 mm^3) were excluded.
Tumor-bearing animals received CAB1.2 in PBS intravenously (IV) at doses of 1 or 2.5 mg/kg in an injection volume of 100 microliters in PBS. C-Mel stored at −70° C. as a 100 mg/ml frozen solution in DMSO) was formulated fresh (15 mg/ml, in a 5:4 ratio of 0.1M Na bicarbonate:PBS) and administered at a dose of 150 mg/kg on an average weight basis, IV bolus, via the tail vein in an injection volume of 200 microliters to all treatment groups receiving prodrug. Melphalan was formulated fresh (2 mg/ml in 20% DMSO/PBS) and administered intraperitoneally in an injection volume of 100 microliters. Briefly, animals administered CAB1.2 at 2.5 mg/kg were administered C-Mel 18 or 36 hours after CAB1.2 treatment. […]
(§2) Animals were monitored daily for general appearance, animal weights taken once weekly and tumor measurements taken twice weekly. Data was collected and mean tumor volumes for all treatment groups determined±SEM, and plotted for analysis (days post tumor challenge vs tumor volume).

Data set [2] can be described thus: Treatment-related toxicity (weight loss, animal deaths) in LS174T SCID mouse study. The data set is classed as in vivo, CB17-SCID mice. Conditions: for weight loss: melphalan 10 mg/kg.
Excerpt: as §1
Tumor-bearing animals received CAB1.2 in PBS intravenously (IV) at doses of 1 or 2.5 mg/kg in an injection volume of 100 microliters in PBS. C-Mel stored at −70° C. as a 100 mg/ml frozen solution in DMSO) was formulated fresh (15 mg/ml, in a 5:4 ratio of 0.1M Na bicarbonate:PBS) and administered at a dose of 150 mg/kg on an average weight basis, IV bolus, via the tail vein in an injection volume of 200 microliters to all treatment groups receiving prodrug. Melphalan was formulated fresh (2 mg/ml in 20% DMSO/PBS) and administered intraperitoneally in an injection volume of 100 microliters. Briefly, animals administered CAB1.2 at 2.5 mg/kg were administered C-Mel 18 or 36 hours after CAB1.2 treatment. Animals administered CAB1.2 at 1 mg/kg were administered C-Mel 24 hours after CAB1.2 treatment. Control groups were as follows: untreated, 2.5 mg/kg CAB1.2 alone, 10 mg/kg melphalan, C-Mel alone, 2.5 mg/kg P97ADEPT followed by C-Mel 18 hours later, 1.5 mg/kg Beta-lactamase (BLA, 1.5 mg/kg, which was equimolar to the 2.5 mg/kg CAB1.2 BLA concentrations used), followed by C-Mel 18 hours later. Treatments were repeated once weekly for 3 cycles. Tumor measurements (in millimeters) were taken twice weekly; the investigator measuring the tumors was blinded to the treatment groups.
as §2
The average weights of individual treatment groups taken on day 9, when the first dose of C-Mel was administered, was used as the baseline weight of tumor-bearing animals for weight loss determinations within each treatment group. […] One animal was lost at day 14 due to procedural error during treatment. Toxicity-related deaths were noted as follows: 2 animals found dead on day 27, 3 animals each found dead on days 30 and 34, for a total of 8/9 toxicity-related deaths on the study for the 18 hr CAB1.2/C-Mel treatment group. […] One animal was sacrificed on day 12 due to excessive necrosis at the tumor site. […]

One molecule from patent publication US20110160440A1, “Cab Molecules” (GENENCOR INTERNATIONAL, INC., priority 2003, published 2011) can be followed below.

With `N[C@@H](Cc1ccc(N(CCCl)CCCl)cc1)C(=O)O` [Melphalan], the “inhibition vs untreated control” value in data set [1] (day 34, melphalan 10 mg/kg intraperitoneally (MTD), once weekly 3 cycles) is reported as 34%. For the same molecule, in data set [1] (melphalan 10 mg/kg treatment group), the tumor regressions result is reported as “no tumor regressions occurred”. Moreover, the weight loss in data set [2] (day 16) was found to be 11%; in data set [2] (day 24), 12.5%. The “toxicity-related deaths on the study” value in data set [2] (melphalan alone 10 mg/kg) is 3/10. Also, the animal deaths in data set [2] (melphalan at maximum tolerated dose (MTD)) was 30%.
